For three compounds, IC50 and EC50 results are on record in US20260306644A1, “ANTIBODY RECRUITING MOLECULES FOR THE TREATMENT OF CORONAVIRUS DISEASE-19” (priority 2023, published 2026).

The target in assay [1] is T1, SARS-CoV-2 Spike A (wild-type) (Severe acute respiratory syndrome coronavirus 2, UniProt P0DTC2).
T1 construct: purchased Meso Scale Diagnostics, LLC V-PLEX SARS-CoV-2 Panel 13 (ACE2) Kit / Panel 23 (ACE2) Kit
Kind of assay: MSD ACE2 competition assay (inhibition of Spike binding with ACE2, ECL), A (wild-type).

The target of assay [2] is SARS-CoV-2 Spike protein (Severe acute respiratory syndrome coronavirus 2, UniProt P0DTC2). Kind of assay: Ternary binding of SARS-CoV-2 Spike protein (293T cells expressing Spike-GFP, IgG-AF647, flow cytometry). The assay is classed as cell-based. Conditions: 293T cells expressing Spike-GFP; IgG-AF647 10 μg/ml; repeat values/batches listed separately; read-out: SARS-CoV-2 Ternary binding EC50. Background: Flow cytometry measures light scatter and fluorescence of single cells or particles in a stream.

[3] abbreviates: read-out: IC50 Wild Type, Wild Type Spike.

Where “and” joins values, the source holds several entries; their conditions need not be identical. Equal values may be shown once. Read-outs that look alike come from different tables or passages of the source. Positions of bridges follow the written chain, without caps; N, C: chain ends.

Consider `CC[C@H](C)[C@H](NC(=O)[C@H](CC(C)C)NC(=O)[C@H](CC(=O)O)NC(=O)[C@H](CO)NC(=O)[C@@H](NC(=O)[C@H](CCCNC(=N)N)NC(=O)[C@H](CCSC)NC(=O)[C@H](CO)NC(=O)[C@H](C)NC(=O)[C@H](CCC(=O)O)NC(=O)[C@H](C)NC(=O)[C@H](Cc1c[nH]cn1)NC(=O)CNC(=O)[C@H](CC(C)C)NC(=O)[C@H](CCC(=O)O)NC(=O)[C@H](CC(=O)O)NC(=O)[C@H](CC(C)C)NC(=O)[C@H](CC(C)C)NC(=O)[C@H](CCCNC(=N)N)NC(=O)[C@H](CCSC)NC(=O)[C@@H](NC(=O)[C@H](CCC(=O)O)NC(=O)[C@H](Cc1ccc(O)cc1)NC(=O)[C@@H](NC(=O)[C@H](CCCCN)NC(=O)[C@H](CCC(N)=O)NC(=O)[C@H](CC(C)C)NC(=O)[C@@H](NC(=O)[C@H](Cc1c[nH]c2ccccc12)NC(=O)[C@H](CCC(=O)O)NC(=O)[C@H](CCCCN)NC(=O)[C@H](CC(=O)O)NC(C)=O)[C@@H](C)CC)[C@@H](C)CC)[C@@H](C)CC)C(C)C)C(=O)N[C@@H](Cc1ccc(O)cc1)C(=O)N[C@@H](CCC(=O)O)C(=O)N[C@@H](Cc1ccccc1)C(=O)N[C@@H](CCSC)C(=O)N[C@@H](CCCCN)C(=O)N[C@@H](CCCCN)C(=O)NCC(=O)NCCOCCOCCOCCOCCOCCOCCOCCOCCC(=O)NCCOCCOCCOCCOCCOCCOCCOCCOCCC(=O)NCCOCCOCCOCCOCCOCCOCCOCCOCCC(=O)N[C@@H](CC(=O)O)C(=O)N[C@H]1CSSC[C@@H](C(=O)N[C@H](C(=O)O)[C@@H](C)O)NC(=O)[C@H](Cc2c[nH]c3ccccc23)NC(=O)[C@H](C(C)C)NC(=O)[C@H](CC(C)C)NC(=O)[C@H](CCC(=O)O)NC(=O)CNC(=O)[C@H](CC(C)C)NC(=O)[C@H](Cc2c[nH]cn2)NC(=O)[C@H](Cc2c[nH]c3ccccc23)NC(=O)[C@H](C)NC1=O` [Compound 168], for which the concentration for half-maximal inhibition (IC50) (in general, the point on the concentration scale where inhibition reaches its midpoint) in assay [1] (setting [3]) was determined as 3.26 nM. The EC50 (commonly the concentration at which the effect is half-maximal) in assay [2] turned out to be 0.19 nM.

In the case of “Ac-QKIYEIMRLCDELGHAEACMRVSDLIYEFMKKGDCAWHLGELVWCT-NH2 (disulfide 10-19, 35-45) [Compound 164]”, the IC50 in assay [1] (setting [3]) is > 10000 nM. In addition, in assay [2], the EC50 was > 100 nM.

For `CC[C@H](C)[C@H](N)C(=O)N[C@@H](CC(C)C)C(=O)N[C@@H](CCC(N)=O)C(=O)N[C@@H](CCCCN)C(=O)N[C@H](C(=O)N[C@@H](Cc1ccc(O)cc1)C(=O)N[C@@H](CCC(=O)O)C(=O)N[C@H](C(=O)N[C@@H](CCSC)C(=O)N[C@@H](CCCNC(=N)N)C(=O)N[C@@H](CC(C)C)C(=O)N[C@@H](CC(C)C)C(=O)N[C@@H](CC(=O)O)C(=O)N[C@@H](CCC(=O)O)C(=O)N[C@@H](CC(C)C)C(=O)NCC(=O)N[C@@H](Cc1c[nH]cn1)C(=O)N[C@@H](C)C(=O)N[C@@H](CCC(=O)O)C(=O)N[C@@H](C)C(=O)N[C@@H](CO)C(=O)N[C@@H](CCSC)C(=O)N[C@@H](CCCNC(=N)N)C(=O)N[C@H](C(=O)N[C@@H](CO)C(=O)N[C@@H](CC(=O)O)C(=O)N[C@@H](CC(C)C)C(=O)N[C@H](C(=O)N[C@@H](Cc1ccc(O)cc1)C(=O)N[C@@H](CCC(=O)O)C(=O)N[C@@H](Cc1ccccc1)C(=O)N[C@@H](CCSC)C(=O)N[C@@H](CCCCN)C(=O)N[C@@H](CCCCN)C(=O)NCC(=O)N[C@@H](CC(=O)O)C(=O)N[C@H]1CSSC[C@@H](C(=O)N[C@H](C(=O)O)[C@@H](C)O)NC(=O)[C@H](Cc2c[nH]c3ccccc23)NC(=O)[C@H](C(C)C)NC(=O)[C@H](CC(C)C)NC(=O)[C@H](CCC(=O)O)NC(=O)CNC(=O)[C@H](CC(C)C)NC(=O)[C@H](Cc2c[nH]cn2)NC(=O)[C@H](Cc2c[nH]c3ccccc23)NC(=O)[C@H](C)NC1=O)[C@@H](C)CC)C(C)C)[C@@H](C)CC)[C@@H](C)CC` [Compound 117], the IC50 in assay [1] (IC50 Wild Type, Wild Type Spike) was 54.8 nM and 61.1 nM. In assay [2], the concentration for a half-maximal effect (EC50) is 4.9 nM and 4.4 nM.
